The results in this text go back to patent publication US20240293412A1, “NAMPT ACTIVATORS FOR TREATING METABOLIC AND NEUROLOGICAL DISORDERS” (The Board of Trustees of the University of Illinois, priority 2021, published 2024).

One assay has as its system THP-1 cells. The assay can be described thus: cells. To be noted: Homo sapiens, THP-1, 24 h; for Emax: read-out: Maximum activation (%).
A further assay concerns the target NAMPT (Homo sapiens (Human), UniProt P43490). As to the kind of experiment: NAMPT coupled enzyme activity assay. It is filed as biochemical. To be noted: NAMPT activation, Table 2; for Emax: read-out: Maximum activation (%).

The EC50 is the concentration needed to bring the measured effect to its halfway point. Read a low EC50 as higher potency in that assay.

Chain of NAMPT (P43490 whole entry): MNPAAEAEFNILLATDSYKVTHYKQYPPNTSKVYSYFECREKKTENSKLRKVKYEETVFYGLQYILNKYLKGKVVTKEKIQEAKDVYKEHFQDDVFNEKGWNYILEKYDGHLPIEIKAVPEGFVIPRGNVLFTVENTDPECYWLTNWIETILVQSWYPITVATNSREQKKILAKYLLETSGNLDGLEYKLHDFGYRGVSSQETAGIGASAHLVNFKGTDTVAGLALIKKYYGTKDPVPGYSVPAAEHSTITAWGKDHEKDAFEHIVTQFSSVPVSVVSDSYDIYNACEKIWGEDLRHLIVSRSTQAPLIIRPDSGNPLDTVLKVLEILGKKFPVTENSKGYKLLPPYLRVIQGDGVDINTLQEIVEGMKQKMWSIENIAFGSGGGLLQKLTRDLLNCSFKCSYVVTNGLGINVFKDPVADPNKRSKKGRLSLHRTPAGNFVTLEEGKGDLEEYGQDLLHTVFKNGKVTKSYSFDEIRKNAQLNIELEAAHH

In the case of `CSc1ccc(CNC(=O)[C@H]2CCCN(c3ncnc4nn(-c5ccc(C)cc5)cc34)C2)cc1`, in the assay on THP-1 cells, the EC50 stood at 3.2 µM and the Emax is 202%. On to `O=C(NCc1ccc2sccc2c1)[C@H]1CCCN(c2ncnc3nn(-c4ccc(C(F)(F)F)cc4)cc23)C1`, for which, in the assay with THP-1 cells, it took 0.74 µM to reach a half-maximal effect (EC50) and the Emax was found to be 150%. As to `Cc1ccc(-n2cc3c(N4CCCC(C(=O)NCc5ccc(N(C)C)cc5)C4)ncnc3n2)cc1` (stereo not drawn), on NAMPT, the half-maximal effective concentration (EC50) turned out to be 0.16 µM and the Emax was found to be 186%. As for `Cc1ccc(-n2cc3c(N4CCCC(C(=O)NCc5cc[nH]n5)C4)ncnc3n2)cc1` (stereo not drawn), the EC50 at NAMPT is > 10 µM.

For `CSc1ccc(CNC(=O)C2CCN(c3ncnc4nn(-c5ccc(C)cc5)cc34)CC2)cc1`, on NAMPT, the EC50 was determined as 9.4 µM and the Emax is 240%.
